Reference: patent publication US20080063628A1, “METHODS TO PROMOTE CELL DIFFERENTIATION” (priority 2006, published 2008)

Test system: amniotic fluid-derived cell line
Assay: Two high dose trichostatin A treatments (first 48 h), gene expression by RT-PCR (Example 9);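 as to Gata-1 RT-PCR detection cycle: lower cycle number means higher gene expression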;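 as to HNF-3 beta RT-PCR detection cycle: lower cycle number means higher gene expression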
Type: cell-based, human
Settings: for Gata1 gene expression / HNF-3 beta gene expression / Insulin gene expression / Pdx-1 gene expression / sox17 gene expression: 1.25 μM 0-48 h + 96-120 h
Protocol: Several cell lines obtained from different amniotic fluid specimens (see Example 14) and pancreas donors (see Example 13) were tested with similar results. Two lines at similar passage number but derived from different amniotic fluid specimens are shown in Table VIII-A and Table VIII-B for this example. One of these cell lines was also used in examples 2 and 4 above. In addition, this example also contains comparison data in Table VIII-C and Table VIII-D for a single pancreatic-derived stromal line grown to early and late passage number.
Amniotic fluid derived cells or pancreatic-derived stromal cells were seeded into 24-well tissue culture plates at a density of 5000/cm^2 and cultured in AMNIOMAX (Invitrogen) or DMEM with 10% FBS respectively under standard cell culture conditions until confluent. After reaching confluence, amniotic fluid derived cells were treated at time 0 hours with a dose of 1.25 μM trichostatin A, and pancreatic-derived stromal cells were treated with a dose of 5.0 μM trichostatin A solubilized in DMSO and medium. At time 48 hours, cell cultures underwent a complete medium change to remove all traces of trichostatin A. At time 96 hours, cell cultures were re-fed with fresh medium and received a second dose of trichostatin A at the same concentration as used previously. At time 120 hours, cell cultures again underwent a complete medium change and were cultured for an additional 24 hours or […] total incubation time. Samples were taken for RT-PCR at the times indicated in Table IX-A to D. RNA samples were obtained daily from the start of the experiment. Culture medium was removed, and cells were washed with PBS then collected in RLT with β-mercaptoethanol (Qiagen). RNA was purified using the RNeasy Mini Kit (Qiagen) and RNA quantity and quality was determined using a spectrophotometer. cDNA was made using the iScript cDNA synthesis kit (BioRad). Human pancreas cDNA was included as a control. Results were normalized against GAPDH expression levels.
[…] Samples of 20 ng cDNA was used in each Real-Time PCR reaction. RT-PCR was performed on the Applied Biosystems 7500, according to the methods described in Example 15. The data were analyzed using the accompanying software.
Real-time PCR amplifcation and quantitative analysis. Unless otherwise stated, all reagents were purchased from Applied Biosystems. Real-time PCR reactions were performed using the ABI PRISM™ 7500 Sequence Detection System. TAQMAN™ FAST UNIVERSAL PCR MASTER MIX™ (ABI, CA) was used with 20 ng of reverse transcribed RNA in a total reaction volume of 20 μl. Each cDNA sample was run in duplicate to allow correction of pipetting errors. Primers and FAM-labeled TAQMAN™ probes were used at concentrations of 200 nM. The level of expression for each target gene was normalized using the pre-developed Applied Biosystem's human glyceraldehyde-3-phosphate dehydrogenase (GAPDH) endogenous control kit. Primers and probes were designed using either ABI PRISM PRIMER EXPRESS™ software or a pre-developed ABI gene analysis kit. For each gene, either one of the primers or the probe were designed to be exon-boundary spanning. This eliminated the possibility of the primers/probe binding to any genomic DNA present. The primer and probe sets are listed as follows: Pdx-1 (Hs00426216), Insulin (Hs00355773), glucagon (Hs00174967), and FoxA2 (HNF 3-beta) (Hs00232764). The remaining primers were designed using the PRIMERS program (ABI, CA). After an initial 95° C. incubation for 20 sec, samples were cycled 40 times in two stages: a denaturation step at 95° C. for 3 sec, followed by an annealing/extension step at 60° C. for 30 sec.
For each primer/probe set, a cycle time value was determined as the cycle number at which the fluorescence intensity of the PCR reaction reached a specific value in the middle of the exponential region of amplification. […]

[1] = 1.25 μM, following the addition

SMILES: CC(/C=C/C(=O)NO)=C\[C@@H](C)C(=O)c1ccc(N(C)C)cc1 [trichostatin A]
- Gata1 gene expression (24 hrs): + (detectable between 35 and 40 cycles by RT-PCR)
- HNF-3 beta gene expression (24 hrs): +++ (detectable at less than 35 cycles by RT-PCR with SE less than 0.9)
- Insulin gene expression (24 hrs): nd (not detectable at >40 cycles by RT-PCR)
- Pdx-1 gene expression (24 hrs): +++ (detectable at less than 35 cycles by RT-PCR with SE less than 0.9)
- sox17 gene expression (24 hrs): +++ (detectable at less than 35 cycles by RT-PCR with SE less than 0.9)
- Gata1 gene expression (48 hrs): nd (not detectable at >40 cycles by RT-PCR)
- HNF-3 beta gene expression (48 hrs): +++ (detectable at less than 35 cycles by RT-PCR with SE less than 0.9)
- Insulin gene expression (48 hrs): nd (not detectable at >40 cycles by RT-PCR)
- Pdx-1 gene expression (48 hrs): +++ (detectable at less than 35 cycles by RT-PCR with SE less than 0.9)
- sox17 gene expression (48 hrs): +++ (detectable at less than 35 cycles by RT-PCR with SE less than 0.9)
- Gata1 gene expression (72 hrs): nd (not detectable at >40 cycles by RT-PCR)
- HNF-3 beta gene expression (72 hrs): + (detectable between 35 and 40 cycles by RT-PCR)
- Insulin gene expression (72 hrs): nd (not detectable at >40 cycles by RT-PCR)
- Pdx-1 gene expression (72 hrs): nd (not detectable at >40 cycles by RT-PCR)
- sox17 gene expression (72 hrs): +++ (detectable at less than 35 cycles by RT-PCR with SE less than 0.9)
- Gata1 gene expression (96 hrs): nd (not detectable at >40 cycles by RT-PCR)
- HNF-3 beta gene expression (96 hrs): nd (not detectable at >40 cycles by RT-PCR)
- Insulin gene expression (96 hrs): nd (not detectable at >40 cycles by RT-PCR)
- Pdx-1 gene expression (96 hrs): nd (not detectable at >40 cycles by RT-PCR)
- sox17 gene expression (96 hrs): +++ (detectable at less than 35 cycles by RT-PCR with SE less than 0.9)
- Gata1 gene expression (120 hrs): nd (not detectable at >40 cycles by RT-PCR)
- HNF-3 beta gene expression (120 hrs): + (detectable between 35 and 40 cycles by RT-PCR)
- Insulin gene expression (120 hrs): nd (not detectable at >40 cycles by RT-PCR)
- Pdx-1 gene expression (120 hrs): + (detectable between 35 and 40 cycles by RT-PCR)
- sox17 gene expression (120 hrs): +++ (detectable at less than 35 cycles by RT-PCR with SE less than 0.9)
- Pdx-1 RT-PCR detection cycle (1.25 μM, after the second treatment): 37 cycles
- Gata-1 RT-PCR detection cycle (1.25 μM, following first treatment): 37 cycles
- HNF-3 beta RT-PCR detection cycle [1]: 31 cycles
- Pdx-1 RT-PCR detection cycle [1]: 32 cycles
- HNF-3 beta RT-PCR detection cycle (1.25 μM, following the second treatment): 35 cycles
